Data on two compounds can be found in ChEMBL document CHEMBL3886358, “Quinolyl-containing hydroxamic acid compound and preparation method thereof, and pharmaceutical composition containing this compound and use thereof” (2015).

One test addresses T1, Histone deacetylase 7 (Homo sapiens, UniProt Q8WUI4).
T1 sequence (Q8WUI4 whole entry): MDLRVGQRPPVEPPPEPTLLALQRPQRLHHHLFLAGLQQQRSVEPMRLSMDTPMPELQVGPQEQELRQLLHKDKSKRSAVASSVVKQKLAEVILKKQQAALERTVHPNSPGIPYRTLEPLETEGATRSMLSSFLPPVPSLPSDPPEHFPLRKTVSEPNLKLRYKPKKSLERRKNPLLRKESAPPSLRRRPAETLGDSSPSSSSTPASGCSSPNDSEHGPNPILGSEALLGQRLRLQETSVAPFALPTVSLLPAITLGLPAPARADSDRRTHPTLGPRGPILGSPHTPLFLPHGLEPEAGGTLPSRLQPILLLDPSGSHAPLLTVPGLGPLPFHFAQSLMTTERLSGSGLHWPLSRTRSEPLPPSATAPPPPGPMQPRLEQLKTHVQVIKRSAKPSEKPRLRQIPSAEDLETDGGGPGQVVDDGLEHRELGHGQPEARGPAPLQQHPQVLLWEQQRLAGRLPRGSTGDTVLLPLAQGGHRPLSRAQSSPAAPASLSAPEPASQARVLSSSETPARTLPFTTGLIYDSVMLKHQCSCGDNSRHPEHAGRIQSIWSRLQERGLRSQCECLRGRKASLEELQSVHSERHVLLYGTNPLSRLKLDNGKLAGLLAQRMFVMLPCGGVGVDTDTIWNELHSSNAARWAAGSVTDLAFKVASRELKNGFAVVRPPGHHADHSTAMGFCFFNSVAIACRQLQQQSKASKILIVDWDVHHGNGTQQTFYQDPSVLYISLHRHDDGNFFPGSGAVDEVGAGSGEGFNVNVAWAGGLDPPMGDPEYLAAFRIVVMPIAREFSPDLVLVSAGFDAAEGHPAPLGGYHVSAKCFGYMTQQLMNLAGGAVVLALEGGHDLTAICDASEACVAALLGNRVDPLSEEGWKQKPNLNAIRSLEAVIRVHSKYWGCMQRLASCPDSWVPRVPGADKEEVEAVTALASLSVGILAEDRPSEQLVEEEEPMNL
Description: (§1) Inhibition Assay: The inhibitions of activities of HDAC enzymes by the compounds N1'-[3-fluoro-4-[[7-[4-(hydroxyamino)-4-oxobutoxy]-6-methoxy-4-quinolyl]oxy]phenyl]-N1-(4-fluoro phenyl)cyclopropane-1,1-dicarboxamide prepared in Example 9 and N1'-[3-fluoro-4-[[7-[6-(hydroxyamino)-6-oxohexyloxy]-6-methoxy-4-quinolyl]oxy]phenyl]-N1-(4-fluo rophenyl)cyclopropane-1,1-dicarboxamide prepared in Example 13 were measured by Reaction Biology Corporation (Reaction Biology Corp., One Great Valley Parkway, Suite 2, Malvern, PA 19355, USA . http://www.reactionbiology.com/pages/hdac.htm). The HDAC enzymes tested include the following 11 HDAC isoforms: HDAC1, HDAC2, HDAC3, HDAC4, HDAC5, HDAC6, HDAC7, HDAC8, HDAC9, HDAC10 and HDAC11.Specific steps were as follows: The compound of the present invention was dissolved in dimethyl sulfoxide (DMSO) to make a stock solution of 10 mM. The stock solution was diluted in 4-fold series starting from 10 mM to prepare 10 different dosages.

For the next test, the target named is Histone deacetylase 9 (Homo sapiens, UniProt Q9UKV0). The description is as §1.
Chain of Histone deacetylase 9 (Q9UKV0 whole entry): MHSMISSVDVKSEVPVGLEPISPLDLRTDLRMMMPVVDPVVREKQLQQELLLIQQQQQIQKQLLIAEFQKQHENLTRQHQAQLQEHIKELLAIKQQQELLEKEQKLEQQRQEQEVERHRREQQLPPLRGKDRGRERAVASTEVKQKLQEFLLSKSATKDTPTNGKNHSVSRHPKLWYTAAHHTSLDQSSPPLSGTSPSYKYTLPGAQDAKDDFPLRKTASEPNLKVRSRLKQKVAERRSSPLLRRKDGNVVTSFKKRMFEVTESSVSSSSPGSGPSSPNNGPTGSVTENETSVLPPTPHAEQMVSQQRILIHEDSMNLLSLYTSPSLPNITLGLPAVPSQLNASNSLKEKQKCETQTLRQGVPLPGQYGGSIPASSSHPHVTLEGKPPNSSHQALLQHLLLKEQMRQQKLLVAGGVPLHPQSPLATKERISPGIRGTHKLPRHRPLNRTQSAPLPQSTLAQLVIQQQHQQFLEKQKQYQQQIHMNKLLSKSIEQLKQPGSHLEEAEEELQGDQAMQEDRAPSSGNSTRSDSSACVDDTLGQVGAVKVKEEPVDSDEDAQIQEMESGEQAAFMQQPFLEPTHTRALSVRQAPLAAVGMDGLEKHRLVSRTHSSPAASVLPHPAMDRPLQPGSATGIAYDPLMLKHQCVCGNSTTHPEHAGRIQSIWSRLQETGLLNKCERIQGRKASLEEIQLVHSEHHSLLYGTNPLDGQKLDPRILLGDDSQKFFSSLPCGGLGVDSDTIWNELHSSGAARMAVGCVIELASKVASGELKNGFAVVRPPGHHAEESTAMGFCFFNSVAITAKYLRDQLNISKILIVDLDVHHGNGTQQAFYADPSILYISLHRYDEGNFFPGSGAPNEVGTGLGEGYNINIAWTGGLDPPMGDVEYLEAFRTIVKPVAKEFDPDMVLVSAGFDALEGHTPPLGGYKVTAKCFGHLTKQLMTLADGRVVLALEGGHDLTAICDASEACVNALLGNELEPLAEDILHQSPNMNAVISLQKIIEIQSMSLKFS
Test [1] addresses Hepatocyte growth factor receptor (Homo sapiens, UniProt P08581). Description: (§2) Sci. USA 1988, 85(23), 9312). Specific steps were as follows: The compound of the present invention was dissolved in dimethyl sulfoxide (DMSO) to make a stock solution of 2 mM, then the stock solution was diluted with DMSO following a 7 half-log series to concentrations ranging from 2 uM to 600 pM. It counts as cell-based.

Test [2] has as its target Vascular endothelial growth factor receptor 2 (Homo sapiens, UniProt P35968). Described as §2. It counts as cell-based.
Test [3] has as its target Platelet-derived growth factor receptor beta (Homo sapiens, UniProt P09619). The description is as §2. It counts as cell-based.
Test [4] has as its target ALK tyrosine kinase receptor (Homo sapiens, UniProt Q9UM73). Described as §2. It counts as cell-based.
Test [5] addresses Proto-oncogene tyrosine-protein kinase receptor Ret (Homo sapiens, UniProt P07949). Described as §2. It counts as cell-based.
Test [6] deals with T2, Tyrosine-protein kinase receptor UFO (Homo sapiens, UniProt P30530).
T2 sequence (P30530 whole entry): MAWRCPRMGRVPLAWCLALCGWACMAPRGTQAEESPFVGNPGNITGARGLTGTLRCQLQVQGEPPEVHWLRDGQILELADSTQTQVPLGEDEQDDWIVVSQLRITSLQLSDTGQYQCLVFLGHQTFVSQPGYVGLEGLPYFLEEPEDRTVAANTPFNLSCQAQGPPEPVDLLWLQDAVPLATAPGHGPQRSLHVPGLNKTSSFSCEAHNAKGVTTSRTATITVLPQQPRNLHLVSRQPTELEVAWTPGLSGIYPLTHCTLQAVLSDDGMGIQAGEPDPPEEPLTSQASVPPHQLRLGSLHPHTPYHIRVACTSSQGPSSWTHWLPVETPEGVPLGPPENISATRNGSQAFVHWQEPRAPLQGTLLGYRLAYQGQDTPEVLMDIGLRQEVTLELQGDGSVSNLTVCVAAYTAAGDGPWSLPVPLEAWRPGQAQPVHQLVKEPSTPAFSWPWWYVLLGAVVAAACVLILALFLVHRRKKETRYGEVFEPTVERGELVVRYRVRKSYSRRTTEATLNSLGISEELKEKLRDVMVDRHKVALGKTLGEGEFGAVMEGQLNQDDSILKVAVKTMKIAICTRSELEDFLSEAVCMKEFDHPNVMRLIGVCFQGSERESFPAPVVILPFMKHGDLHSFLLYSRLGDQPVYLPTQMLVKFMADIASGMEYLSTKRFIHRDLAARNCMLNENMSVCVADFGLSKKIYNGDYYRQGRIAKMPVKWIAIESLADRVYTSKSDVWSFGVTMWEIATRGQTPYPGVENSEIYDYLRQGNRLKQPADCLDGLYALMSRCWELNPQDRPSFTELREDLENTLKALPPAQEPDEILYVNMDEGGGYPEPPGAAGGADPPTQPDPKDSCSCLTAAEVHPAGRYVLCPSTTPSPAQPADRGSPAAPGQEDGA
The description is as §2. It counts as cell-based.

For orientation: IC50 means the concentration needed to halve the response being measured.

Chain of Platelet-derived growth factor receptor beta (P09619 whole entry): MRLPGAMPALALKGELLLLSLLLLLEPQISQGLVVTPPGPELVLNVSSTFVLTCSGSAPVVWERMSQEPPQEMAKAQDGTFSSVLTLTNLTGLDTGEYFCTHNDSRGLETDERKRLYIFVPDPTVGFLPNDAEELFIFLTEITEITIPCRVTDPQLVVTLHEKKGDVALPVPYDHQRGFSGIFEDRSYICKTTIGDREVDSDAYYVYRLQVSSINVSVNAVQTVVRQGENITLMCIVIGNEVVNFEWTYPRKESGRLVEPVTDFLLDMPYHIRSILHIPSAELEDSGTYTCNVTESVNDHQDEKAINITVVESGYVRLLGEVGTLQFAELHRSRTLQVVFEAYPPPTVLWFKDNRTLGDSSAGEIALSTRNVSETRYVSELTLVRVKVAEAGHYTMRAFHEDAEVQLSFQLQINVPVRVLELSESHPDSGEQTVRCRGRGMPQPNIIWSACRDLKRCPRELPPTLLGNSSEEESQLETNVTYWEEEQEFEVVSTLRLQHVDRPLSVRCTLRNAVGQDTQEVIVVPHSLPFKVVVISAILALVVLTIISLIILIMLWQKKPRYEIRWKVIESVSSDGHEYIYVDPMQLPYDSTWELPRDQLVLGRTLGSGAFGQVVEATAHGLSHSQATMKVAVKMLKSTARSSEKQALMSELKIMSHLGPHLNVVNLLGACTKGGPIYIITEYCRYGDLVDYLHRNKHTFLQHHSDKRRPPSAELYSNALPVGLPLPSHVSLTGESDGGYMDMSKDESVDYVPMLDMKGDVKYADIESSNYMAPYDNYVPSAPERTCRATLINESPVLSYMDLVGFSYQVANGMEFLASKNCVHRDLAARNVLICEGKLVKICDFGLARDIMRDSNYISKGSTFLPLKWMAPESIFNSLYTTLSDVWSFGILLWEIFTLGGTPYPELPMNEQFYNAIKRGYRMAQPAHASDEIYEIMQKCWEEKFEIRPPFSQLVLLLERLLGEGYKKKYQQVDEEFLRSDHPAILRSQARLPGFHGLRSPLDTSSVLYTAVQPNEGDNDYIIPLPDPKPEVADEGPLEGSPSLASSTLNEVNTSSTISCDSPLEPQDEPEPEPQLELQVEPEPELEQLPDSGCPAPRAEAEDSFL
Chain of ALK tyrosine kinase receptor (Q9UM73 whole entry): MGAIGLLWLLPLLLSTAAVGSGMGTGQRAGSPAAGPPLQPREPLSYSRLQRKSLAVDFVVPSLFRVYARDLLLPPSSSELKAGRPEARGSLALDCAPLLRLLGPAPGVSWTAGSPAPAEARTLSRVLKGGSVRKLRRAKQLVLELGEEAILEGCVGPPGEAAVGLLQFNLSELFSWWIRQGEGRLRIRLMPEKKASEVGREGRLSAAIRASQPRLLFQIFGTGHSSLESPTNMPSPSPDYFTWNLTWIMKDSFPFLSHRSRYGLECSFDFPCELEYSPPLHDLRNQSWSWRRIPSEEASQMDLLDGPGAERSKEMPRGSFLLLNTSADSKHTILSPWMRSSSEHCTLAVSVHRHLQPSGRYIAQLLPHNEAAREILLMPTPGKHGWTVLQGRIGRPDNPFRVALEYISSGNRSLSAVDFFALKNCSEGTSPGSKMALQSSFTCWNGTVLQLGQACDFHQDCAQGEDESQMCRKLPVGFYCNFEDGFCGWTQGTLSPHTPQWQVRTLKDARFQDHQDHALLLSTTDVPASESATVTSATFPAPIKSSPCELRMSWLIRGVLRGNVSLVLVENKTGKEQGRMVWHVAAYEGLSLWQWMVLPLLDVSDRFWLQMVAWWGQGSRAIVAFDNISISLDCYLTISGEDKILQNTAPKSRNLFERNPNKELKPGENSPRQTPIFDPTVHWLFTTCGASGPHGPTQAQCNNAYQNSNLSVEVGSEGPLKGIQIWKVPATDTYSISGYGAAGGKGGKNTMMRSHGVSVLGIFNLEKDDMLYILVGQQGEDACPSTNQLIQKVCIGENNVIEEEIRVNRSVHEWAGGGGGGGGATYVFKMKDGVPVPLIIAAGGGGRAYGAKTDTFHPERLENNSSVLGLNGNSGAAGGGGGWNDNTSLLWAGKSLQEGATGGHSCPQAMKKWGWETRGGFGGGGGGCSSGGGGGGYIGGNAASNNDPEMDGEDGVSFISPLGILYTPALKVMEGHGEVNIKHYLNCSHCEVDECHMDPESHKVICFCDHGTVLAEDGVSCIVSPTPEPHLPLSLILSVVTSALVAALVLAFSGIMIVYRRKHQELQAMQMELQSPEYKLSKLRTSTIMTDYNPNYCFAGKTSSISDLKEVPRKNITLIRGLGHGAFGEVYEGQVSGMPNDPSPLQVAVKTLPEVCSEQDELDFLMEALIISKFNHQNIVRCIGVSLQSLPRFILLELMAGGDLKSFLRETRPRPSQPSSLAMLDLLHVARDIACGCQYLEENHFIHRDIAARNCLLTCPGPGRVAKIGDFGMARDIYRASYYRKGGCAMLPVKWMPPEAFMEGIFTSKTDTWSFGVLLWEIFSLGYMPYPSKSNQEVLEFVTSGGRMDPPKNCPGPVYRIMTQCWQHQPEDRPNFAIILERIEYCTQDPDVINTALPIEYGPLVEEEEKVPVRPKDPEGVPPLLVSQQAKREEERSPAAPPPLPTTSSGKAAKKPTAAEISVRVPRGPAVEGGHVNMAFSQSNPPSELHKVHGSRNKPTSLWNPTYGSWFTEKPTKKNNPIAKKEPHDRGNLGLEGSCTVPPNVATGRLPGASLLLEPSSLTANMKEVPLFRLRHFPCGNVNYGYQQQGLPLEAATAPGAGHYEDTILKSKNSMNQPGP
Chain of Vascular endothelial growth factor receptor 2 (P35968 whole entry): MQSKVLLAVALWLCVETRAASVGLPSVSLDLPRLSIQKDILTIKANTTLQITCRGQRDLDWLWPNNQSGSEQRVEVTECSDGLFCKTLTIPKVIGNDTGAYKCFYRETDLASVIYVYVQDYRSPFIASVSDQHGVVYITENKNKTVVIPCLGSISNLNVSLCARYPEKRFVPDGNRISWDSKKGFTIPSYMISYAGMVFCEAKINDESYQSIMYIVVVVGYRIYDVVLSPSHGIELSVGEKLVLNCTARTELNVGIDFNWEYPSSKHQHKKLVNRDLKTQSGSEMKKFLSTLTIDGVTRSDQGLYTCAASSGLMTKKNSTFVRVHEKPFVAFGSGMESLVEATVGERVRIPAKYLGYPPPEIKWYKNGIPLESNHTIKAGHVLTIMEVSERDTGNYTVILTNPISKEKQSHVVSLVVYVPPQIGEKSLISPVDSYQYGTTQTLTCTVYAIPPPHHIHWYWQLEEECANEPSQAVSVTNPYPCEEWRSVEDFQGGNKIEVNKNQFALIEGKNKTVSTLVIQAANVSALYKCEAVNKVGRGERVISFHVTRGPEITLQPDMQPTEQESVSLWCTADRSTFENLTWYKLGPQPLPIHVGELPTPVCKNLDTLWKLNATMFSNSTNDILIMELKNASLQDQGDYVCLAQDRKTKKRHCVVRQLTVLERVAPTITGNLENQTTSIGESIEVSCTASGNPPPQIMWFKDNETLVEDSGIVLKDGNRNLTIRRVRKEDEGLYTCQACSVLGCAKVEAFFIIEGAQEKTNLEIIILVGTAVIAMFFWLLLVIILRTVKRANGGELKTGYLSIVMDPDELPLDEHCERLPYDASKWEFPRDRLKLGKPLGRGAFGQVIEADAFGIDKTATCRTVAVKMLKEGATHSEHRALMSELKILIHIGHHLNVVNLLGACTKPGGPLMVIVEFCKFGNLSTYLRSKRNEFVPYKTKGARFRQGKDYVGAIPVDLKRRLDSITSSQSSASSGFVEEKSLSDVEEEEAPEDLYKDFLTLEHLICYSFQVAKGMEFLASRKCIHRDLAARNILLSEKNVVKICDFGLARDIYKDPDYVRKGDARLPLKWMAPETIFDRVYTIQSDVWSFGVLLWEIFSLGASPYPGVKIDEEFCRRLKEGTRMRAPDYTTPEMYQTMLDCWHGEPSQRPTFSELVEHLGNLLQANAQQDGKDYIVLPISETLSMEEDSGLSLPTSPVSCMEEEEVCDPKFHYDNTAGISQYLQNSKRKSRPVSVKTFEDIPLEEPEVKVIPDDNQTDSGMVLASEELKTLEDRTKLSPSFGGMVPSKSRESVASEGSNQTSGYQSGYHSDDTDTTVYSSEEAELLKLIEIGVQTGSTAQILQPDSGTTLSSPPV

Regarding `COc1cc2c(Oc3ccc(NC(=O)C4(C(=O)Nc5ccc(F)cc5)CC4)cc3F)ccnc2cc1OCCCCCC(=O)NO`, the IC50 on Histone deacetylase 7 and against Histone deacetylase 9 was above 10000 nM each time.
Turning to `COc1cc2c(Oc3ccc(NC(=O)C4(C(=O)Nc5ccc(F)cc5)CC4)cc3F)ccnc2cc1OCCCC(=O)NO`, the IC50 on Histone deacetylase 7 was above 10000 nM; against Histone deacetylase 9, above 10000 nM; in test [1] it was 119 nM; in test [2], 12 nM; in test [3], 172 nM; in test [4], above 630 nM. Further, the IC50 in test [5] is 154 nM; in test [6], 19 nM.
